# “And” between values parts separate entries of the source, which are not always exact repeats. Identical values can stand only once.
# System: 171881-019-R-J1-PDC complex spheroid growth, % test/control
# Experiment: Anticancer human tumor 171881-019-R-J1-PDC patient-derived invasive breast carcinoma cell line growth inhibition [Asc]
# Conditions: for viability, T/C: stronger effect = lower value
# In short: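 Tumor cells were grown as complex spheroids with human endothelial cells (HUVEC) and human mesenchymal stem cells as stroma. Agents were tested alone and in combination, in half-log steps down from the clinical Cmax, or from 10 microM where Cmax was unknown.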
# [1] = curve of first compound, second compound 0.1 µM
# [2] = curve of first compound, second compound 0.316 µM
# [3] = curve of first compound, second compound 1 µM
# [4] = curve of first compound, second compound 3.16 µM
# [5] = curve of first compound, second compound 10 µM
# [6] = second compound 0.1 µM, first compound 0.00949 µM
# [7] = second compound 0.1 µM, first compound 0.03 µM
# [8] = second compound 0.1 µM, first compound 0.0949 µM
# [9] = second compound 0.1 µM, first compound 0.3 µM
# [10] = second compound 0.1 µM, first compound 0.949 µM
# [11] = second compound 0.1 µM, first compound 3 µM
# [12] = second compound 0.316 µM, first compound 0.00949 µM
# [13] = second compound 0.316 µM, first compound 0.03 µM
# [14] = second compound 0.316 µM, first compound 0.0949 µM
# [15] = second compound 0.316 µM, first compound 0.3 µM
# [16] = second compound 0.316 µM, first compound 0.949 µM
# [17] = second compound 0.316 µM, first compound 3 µM
# [18] = second compound 1 µM, first compound 0.00949 µM
# [19] = second compound 1 µM, first compound 0.03 µM
# [20] = second compound 1 µM, first compound 0.0949 µM
# [21] = second compound 1 µM, first compound 0.3 µM
# [22] = second compound 1 µM, first compound 0.949 µM
# [23] = second compound 1 µM, first compound 3 µM
# [24] = second compound 3.16 µM, first compound 0.00949 µM
# [25] = second compound 3.16 µM, first compound 0.03 µM
# [26] = second compound 3.16 µM, first compound 0.0949 µM
# [27] = second compound 3.16 µM, first compound 0.3 µM
# [28] = second compound 3.16 µM, first compound 0.949 µM
# [29] = second compound 3.16 µM, first compound 3 µM
# [30] = second compound 10 µM, first compound 0.00949 µM
# [31] = second compound 10 µM, first compound 0.03 µM
# [32] = second compound 10 µM, first compound 0.0949 µM
# [33] = second compound 10 µM, first compound 0.3 µM
# [34] = second compound 10 µM, first compound 0.949 µM
# [35] = second compound 10 µM, first compound 3 µM
# 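Wherever viability, T/C is given: spheroids exposed to compounds for 7 days.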
compound,measurement,setting,value
Cc1nc(N2CCC3(CC2)COC(C)C3N)c(CO)nc1Sc1ccnc(N)c1Cl (stereo not given) + Cc1c(S(C)(=O)=O)c(-c2cc(F)cc(N3CCN(c4ccc(NS(=O)(=O)c5ccc(NC(CCN6CCC(C(=O)OCCCP(=O)(O)O)CC6)CSc6ccccc6)c(S(=O)(=O)C(F)(F)F)c5)cc4)CC3)c2)c(-c2ccc(Cl)cc2)n1C(C)C,IC50,[1],> 3000 nM
same,IC50,[2],> 3000 nM
same,IC50,[3],> 3000 nM
same,IC50,[4],2200 nM
same,IC50,[5],884 nM
same,"viability, T/C",[6],127%
same,"viability, T/C",[7],182%
same,"viability, T/C",[8],201%
same,"viability, T/C",[9],141%
same,"viability, T/C",[10],118%
same,"viability, T/C",[11],102%
same,"viability, T/C",[12],161%
same,"viability, T/C",[13],223%
same,"viability, T/C",[14],187%
same,"viability, T/C",[15],137%
same,"viability, T/C",[16],97.3%
same,"viability, T/C",[17],75.4%
same,"viability, T/C",[18],181%
same,"viability, T/C",[19],201%
same,"viability, T/C",[20],144%
same,"viability, T/C",[21],104%
same,"viability, T/C",[22],80.4%
same,"viability, T/C",[23],66.6%
same,"viability, T/C",[24],180%
same,"viability, T/C",[25],174%
same,"viability, T/C",[26],113%
same,"viability, T/C",[27],80.5%
same,"viability, T/C",[28],59%
same,"viability, T/C",[29],51.7%
same,"viability, T/C",[30],177%
same,"viability, T/C",[31],148%
same,"viability, T/C",[32],112%
same,"viability, T/C",[33],76.7%
same,"viability, T/C",[34],41.8%
same,"viability, T/C",[35],40.5%
CCN1C(C(=O)NC23CCC(C(=O)O)(CC2)CC3)C(c2cccc(Cl)c2F)C2(C(=O)Nc3cc(Cl)ccc32)C12CCCCC2 (stereo not given) + Cc1c(S(C)(=O)=O)c(-c2cc(F)cc(N3CCN(c4ccc(NS(=O)(=O)c5ccc(NC(CCN6CCC(C(=O)OCCCP(=O)(O)O)CC6)CSc6ccccc6)c(S(=O)(=O)C(F)(F)F)c5)cc4)CC3)c2)c(-c2ccc(Cl)cc2)n1C(C)C,IC50,[1],> 3000 nM
same,IC50,[2],> 3000 nM
same,IC50,[3],> 3000 nM
same,IC50,[4],> 3000 nM
same,IC50,[5],> 3000 nM
same,"viability, T/C",[6],82.5%
same,"viability, T/C",[7],107%
same,"viability, T/C",[8],102%
same,"viability, T/C",[9],90.5%
same,"viability, T/C",[10],105%
same,"viability, T/C",[11],120%
same,"viability, T/C",[12],100%
same,"viability, T/C",[13],110%
same,"viability, T/C",[14],129%
same,"viability, T/C",[15],105%
same,"viability, T/C",[16],144%
same,"viability, T/C",[17],146%
same,"viability, T/C",[18],116%
same,"viability, T/C",[19],133%
same,"viability, T/C",[20],129%
same,"viability, T/C",[21],117%
same,"viability, T/C",[22],130%
same,"viability, T/C",[23],167%
same,"viability, T/C",[24],152%
same,"viability, T/C",[25],147%
same,"viability, T/C",[26],159%
same,"viability, T/C",[27],162%
same,"viability, T/C",[28],146%
same,"viability, T/C",[29],163%
same,"viability, T/C",[30],192%
same,"viability, T/C",[31],179%
same,"viability, T/C",[32],182%
same,"viability, T/C",[33],185%
same,"viability, T/C",[34],193%
same,"viability, T/C",[35],172%
Cn1ncnc1[C@H]1c2n[nH]c(=O)c3cc(F)cc(c23)N[C@@H]1c1ccc(F)cc1,"viability, T/C",compound 0.000316 µM,81.3% and 100% and 94.1%
same,"viability, T/C",compound 0.001 µM,86.7% and 107% and 93%
same,"viability, T/C",compound 0.00316 µM,90% and 88.5% and 79.2%
same,"viability, T/C",compound 0.01 µM,92.8% and 101% and 84.1%
same,"viability, T/C",compound 0.0316 µM,86.6% and 86.8% and 99.6%
same,"viability, T/C",compound 0.1 µM,91.4% and 81% and 106%
same,IC50,curve of compound,> 100 nM
CCN1C(C(=O)NC23CCC(C(=O)O)(CC2)CC3)C(c2cccc(Cl)c2F)C2(C(=O)Nc3cc(Cl)ccc32)C12CCCCC2 (stereo not given) + CNC(C)C(=O)NC1CN(S(=O)(=O)c2cccc(S(=O)(=O)N3CCC4CCC(C(=O)NC(c5ccccc5)c5ccccc5)N4C(=O)C(NC(=O)C(C)NC)C3)c2)CCC2CCC(C(=O)NC(c3ccccc3)c3ccccc3)N2C1=O,IC50,"curve of first compound, second compound 0.01 µM",> 3000 nM
same,IC50,"curve of first compound, second compound 0.0316 µM",> 3000 nM
same,IC50,[1],> 3000 nM
same,IC50,[2],> 3000 nM
same,IC50,[3],> 3000 nM
same,"viability, T/C","second compound 0.01 µM, first compound 0.00949 µM",91%
same,"viability, T/C","second compound 0.01 µM, first compound 0.03 µM",108%
same,"viability, T/C","second compound 0.01 µM, first compound 0.0949 µM",117%
same,"viability, T/C","second compound 0.01 µM, first compound 0.3 µM",109%
same,"viability, T/C","second compound 0.01 µM, first compound 0.949 µM",110%
same,"viability, T/C","second compound 0.01 µM, first compound 3 µM",138%
same,"viability, T/C","second compound 0.0316 µM, first compound 0.00949 µM",109%
same,"viability, T/C","second compound 0.0316 µM, first compound 0.03 µM",118%
same,"viability, T/C","second compound 0.0316 µM, first compound 0.0949 µM",104%
same,"viability, T/C","second compound 0.0316 µM, first compound 0.3 µM",112%
same,"viability, T/C","second compound 0.0316 µM, first compound 0.949 µM",105%
same,"viability, T/C","second compound 0.0316 µM, first compound 3 µM",138%
same,"viability, T/C",[6],130%
same,"viability, T/C",[7],117%
same,"viability, T/C",[8],104%
same,"viability, T/C",[9],111%
same,"viability, T/C",[10],117%
same,"viability, T/C",[11],132%
same,"viability, T/C",[12],110%
same,"viability, T/C",[13],120%
same,"viability, T/C",[14],91.2%
same,"viability, T/C",[15],123%
same,"viability, T/C",[16],99%
same,"viability, T/C",[17],132%
same,"viability, T/C",[18],102%
same,"viability, T/C",[19],110%
same,"viability, T/C",[20],112%
same,"viability, T/C",[21],101%
same,"viability, T/C",[22],121%
same,"viability, T/C",[23],132%
O=C(c1ccc(F)c(F)c1Nc1ccc(I)cc1F)N1CC(O)([C@@H]2CCCCN2)C1 + Cc1c(S(C)(=O)=O)c(-c2cc(F)cc(N3CCN(c4ccc(NS(=O)(=O)c5ccc(NC(CCN6CCC(C(=O)OCCCP(=O)(O)O)CC6)CSc6ccccc6)c(S(=O)(=O)C(F)(F)F)c5)cc4)CC3)c2)c(-c2ccc(Cl)cc2)n1C(C)C,IC50,[1],207 nM
same,IC50,[2],164 nM
same,IC50,[3],125 nM
same,IC50,[4],87.3 nM
same,IC50,[5],106 nM
same,"viability, T/C","second compound 0.1 µM, first compound 0.00316 µM",98.9%
same,"viability, T/C","second compound 0.1 µM, first compound 0.01 µM",110%
same,"viability, T/C","second compound 0.1 µM, first compound 0.0316 µM",222%
same,"viability, T/C","second compound 0.1 µM, first compound 0.1 µM",97.6%
same,"viability, T/C","second compound 0.1 µM, first compound 0.316 µM",25.8%
same,"viability, T/C","second compound 0.1 µM, first compound 1 µM",18.8%
same,"viability, T/C","second compound 0.316 µM, first compound 0.00316 µM",109%
same,"viability, T/C","second compound 0.316 µM, first compound 0.01 µM",194%
same,"viability, T/C","second compound 0.316 µM, first compound 0.0316 µM",186%
same,"viability, T/C","second compound 0.316 µM, first compound 0.1 µM",75.9%
same,"viability, T/C","second compound 0.316 µM, first compound 0.316 µM",18.7%
same,"viability, T/C","second compound 0.316 µM, first compound 1 µM",12.3%
same,"viability, T/C","second compound 1 µM, first compound 0.00316 µM",136%
same,"viability, T/C","second compound 1 µM, first compound 0.01 µM",193%
same,"viability, T/C","second compound 1 µM, first compound 0.0316 µM",158%
same,"viability, T/C","second compound 1 µM, first compound 0.1 µM",59.2%
same,"viability, T/C","second compound 1 µM, first compound 0.316 µM",13.7%
same,"viability, T/C","second compound 1 µM, first compound 1 µM",6.11%
same,"viability, T/C","second compound 3.16 µM, first compound 0.00316 µM",156%
same,"viability, T/C","second compound 3.16 µM, first compound 0.01 µM",182%
same,"viability, T/C","second compound 3.16 µM, first compound 0.0316 µM",115%
same,"viability, T/C","second compound 3.16 µM, first compound 0.1 µM",44.8%
same,"viability, T/C","second compound 3.16 µM, first compound 0.316 µM",8.8%
same,"viability, T/C","second compound 3.16 µM, first compound 1 µM",3.61%
same,"viability, T/C","second compound 10 µM, first compound 0.00316 µM",175%
same,"viability, T/C","second compound 10 µM, first compound 0.01 µM",174%
same,"viability, T/C","second compound 10 µM, first compound 0.0316 µM",118%
same,"viability, T/C","second compound 10 µM, first compound 0.1 µM",54.9%
same,"viability, T/C","second compound 10 µM, first compound 0.316 µM",12%
same,"viability, T/C","second compound 10 µM, first compound 1 µM",3.48%
Cc1c(S(C)(=O)=O)c(-c2cc(F)cc(N3CCN(c4ccc(NS(=O)(=O)c5ccc(NC(CCN6CCC(C(=O)OCCCP(=O)(O)O)CC6)CSc6ccccc6)c(S(=O)(=O)C(F)(F)F)c5)cc4)CC3)c2)c(-c2ccc(Cl)cc2)n1C(C)C (stereo not given),"viability, T/C",compound 0.1 µM,98.9% [middle of 14 runs]
same,"viability, T/C",compound 10 µM,175% [middle of 14 runs]
same,IC50,"compound alone, run of 09/27/2022",> 10000 nM
